Series [1] addresses T1, human serum albumin (Homo sapiens, UniProt P02768). As to the kind of experiment: Literature HSA binding of the reference substances used to calibrate the HSA column. The conditions noted are these: logarithmic K of human serum albumin binding, from the literature HSA%. As for the experimental part: The mobile phase was freshly prepared for each experiment and only used for one day. The column was kept at room temperature and each run was stopped after detection of the signal to reduce the acquisition time. All substances were dissolved in a 0.5mg/ml concentration in 50% 2-Propanol and 50% 50mM pH 6.9 ammonium acetate buffer. […] All nine reference substances were injected consecutively to establish a non-linear regression with OriginPro 2016G. […] Table 1: Reference substances used for the calibration of the HSA-column.

Series [2] deals with T1, human serum albumin. The note with it: literature value of human serum albumin binding (Valko et al. or Yamazaki et al.); cited from earlier work.

T1 sequence (P02768 25-609): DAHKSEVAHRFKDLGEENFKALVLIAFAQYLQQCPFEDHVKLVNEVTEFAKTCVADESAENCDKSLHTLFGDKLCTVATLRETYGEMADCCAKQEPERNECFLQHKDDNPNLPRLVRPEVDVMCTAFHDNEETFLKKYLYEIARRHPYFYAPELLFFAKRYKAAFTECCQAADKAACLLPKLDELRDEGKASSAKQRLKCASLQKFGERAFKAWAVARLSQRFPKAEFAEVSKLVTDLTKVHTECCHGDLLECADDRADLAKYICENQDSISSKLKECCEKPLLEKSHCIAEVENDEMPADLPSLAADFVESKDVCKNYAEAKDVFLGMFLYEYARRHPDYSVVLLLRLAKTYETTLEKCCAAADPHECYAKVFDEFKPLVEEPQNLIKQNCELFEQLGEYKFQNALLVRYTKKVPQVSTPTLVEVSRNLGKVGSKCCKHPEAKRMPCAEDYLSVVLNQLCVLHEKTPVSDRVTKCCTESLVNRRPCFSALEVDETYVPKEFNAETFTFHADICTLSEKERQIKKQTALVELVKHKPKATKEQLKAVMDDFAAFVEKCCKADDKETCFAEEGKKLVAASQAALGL

For `O=C(O)c1ccccc1` [Benzoic Acid], the “Log K HSA” value on human serum albumin [1] was -0.29. Besides, the “Lit. HSA%” value on human serum albumin [2] is listed as 34.27%.

Regarding `COc1ccc(Cl)cc1C(=O)NCCc1ccc(S(=O)(=O)NC(=O)NC2CCCCC2)cc1` [Glibenclamide], the “Log K HSA” value at human serum albumin [1] is recorded as 1.69. At human serum albumin [2], the “Lit. HSA%” value is listed as 99.00%.

As for `Oc1ccccc1` [Phenol], the “Log K HSA” value on human serum albumin [1] was -0.59. Also, the “Lit. HSA%” value on human serum albumin [2] was 20.69%.

These data come from EP3494999A1, “PSMA LIGANDS FOR IMAGING AND ENDORADIOTHERAPY” (Technische Universität München, priority 2017, dated 2019).
